# Laboratory results taken from US9840509B2, “Heterocyclic compounds” (CADILA HEALTHCARE LIMITED, priority 2014, dated 2017).
# Assays:
# [1] = target: T1, recombinant purified human BTK (Homo sapiens, UniProt Q06187); experiment: In vitro BTK kinase assay on ADP Glo platform; type: biochemical; settings: 2 hr room temperature, read-out: In-vitro BTK inhibitory activity: IC50
# T1 construct: purchased SignalChem, USA
# Experimental: Testing of Compounds of the Invention Biological Studies: In vitro BTK Inhibitory Activity Assay:
# In vitro BTK inhibitory activity of test compounds were screened using BTK kinase assay on ADP Glo platform (Li, H., Totoritis, R. D., Lor, L. A., Schwartz, B., Caprioli, P., Jurewicz, A. J and Zhang, G., Assay Drug Dev. Technol., 2009, 7(6), 598-605). Briefly, fixed amount of recombinant purified human BTK (3 ng/reaction from SignalChem, USA) were incubated with increasing concentration of test compounds, in 1× kinase reaction buffer (40 mM Tris-Cl, pH7.5, 20 mM MgCl2, 2 mM MnCl2, 0.1 mg/ml BSA and 50 μM DTT). Enzymatic reaction was initiated by adding a substrate cocktail containing 50 µM of ATP (final concentration) and […] of polyGln4Tyr1 (Signal Chem) in total 25 μl of reaction, in round bottom white 96 well plate. The reaction mixture was incubated at room temperature for 2 hr. After 2 hr of incubation, 10 μl of the reaction mix was mixed with […] of ADP Glo reagent, in another round bottom white 96 well plate and incubated at room temperature for 40 min. This was followed by addition of kinase detection reagent (20 μl per reaction) and incubation at room temperature for 30 min. Finally, plate was read for luminescence at an integration time of 500 millisecond per well. Data were plotted taking Enzyme with no inhibitor set as the 100% kinase activity and for dose response curve, % Kinase activity was plotted against conc on Log scale and IC50 was determined by non linear curve fitting method using GraphPad Prism software 6. The in vitro BTK inhibitory activity (IC50) for representative compounds are listed in […]
# CYP 1A2 = target: T2, CYP 1A2 (Homo sapiens, UniProt P05177); experiment: CYP inhibition in human liver microsomes, 1A2; type: in vitro ADME; settings: pH 7.4, @ 10 μM concn
# T2 construct: from tissue; host or cells: human liver microsomes
# T2 sequence (P05177 1-516): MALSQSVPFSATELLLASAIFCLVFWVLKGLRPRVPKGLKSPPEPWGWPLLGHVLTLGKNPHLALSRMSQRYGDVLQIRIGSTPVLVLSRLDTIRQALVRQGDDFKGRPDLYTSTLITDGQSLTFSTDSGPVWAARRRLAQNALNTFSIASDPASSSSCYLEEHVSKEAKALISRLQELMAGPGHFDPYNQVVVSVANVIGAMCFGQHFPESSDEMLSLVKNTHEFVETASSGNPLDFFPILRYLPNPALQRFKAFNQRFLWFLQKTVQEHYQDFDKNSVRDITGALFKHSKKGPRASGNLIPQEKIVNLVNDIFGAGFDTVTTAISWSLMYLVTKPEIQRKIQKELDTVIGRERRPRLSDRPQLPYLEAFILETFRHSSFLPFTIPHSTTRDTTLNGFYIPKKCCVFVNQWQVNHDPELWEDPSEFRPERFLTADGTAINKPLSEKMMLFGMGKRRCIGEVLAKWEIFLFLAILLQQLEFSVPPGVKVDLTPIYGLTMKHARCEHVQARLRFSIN
# Experimental: (§1) CYP Inhibition Studies: CYP inhibition studies were performed with test compounds, at two concentrations ([…] and 10 μM), using human liver microsomes (Yao, M., Zhu, M., Sinz, M. W., Zhang, H., Humphreys, W. F., Rodrigues, A. D and Dai, R., Journal of Pharmaceutical and Biomedical Analysis, 2007, 44, 211-223; Walsky, R. L and Obach, R. S., Drug Metab. Dispos., 2004, 32, 647-660). Human liver microsomes were mixed with 100 mM phosphate buffer (pH 7.4) and probe substrate and warmed to […] in microcentrifuge tubes. Aliquots of this mixture (499 μL) were transferred to each pre-labeled microcentrifuge tubes, followed by addition of the 1 μL of inhibitors (test compound/CYP-specific positive control inhibitor) or control solvent (DMSO). Aliquots of this mixture (90 μL) were transferred to each pre-labeled microcentrifuge tubes in duplicate. Final solvent concentrations were 0.2% (v/v) or less. Incubations were commenced with the addition of 10 μL NADPH stock (assay concentration, 1 mM) to a final incubation volume of 100 μL and incubated in shaking water bath (at 37° C. and 100 rpm), for the period defined in Tables 1. Incubations were terminated by addition of 400 μL of termination solvent (CH3CN) containing internal standard. The terminated samples were vortex-mixed, centrifuged at 10000 rpm for 5 min and supernatant transferred into HPLC vials for LC-MS/MS analysis to monitor metabolites produced by marker CYP reactions. […] Animals
# CYP 2C8 = target: T3, CYP 2C8 (Homo sapiens, UniProt P10632); experiment: CYP inhibition in human liver microsomes, 2C8; type: in vitro ADME; settings: pH 7.4, @ 10 μM concn
# T3 construct: from tissue; host or cells: human liver microsomes
# T3 sequence (P10632 1-490): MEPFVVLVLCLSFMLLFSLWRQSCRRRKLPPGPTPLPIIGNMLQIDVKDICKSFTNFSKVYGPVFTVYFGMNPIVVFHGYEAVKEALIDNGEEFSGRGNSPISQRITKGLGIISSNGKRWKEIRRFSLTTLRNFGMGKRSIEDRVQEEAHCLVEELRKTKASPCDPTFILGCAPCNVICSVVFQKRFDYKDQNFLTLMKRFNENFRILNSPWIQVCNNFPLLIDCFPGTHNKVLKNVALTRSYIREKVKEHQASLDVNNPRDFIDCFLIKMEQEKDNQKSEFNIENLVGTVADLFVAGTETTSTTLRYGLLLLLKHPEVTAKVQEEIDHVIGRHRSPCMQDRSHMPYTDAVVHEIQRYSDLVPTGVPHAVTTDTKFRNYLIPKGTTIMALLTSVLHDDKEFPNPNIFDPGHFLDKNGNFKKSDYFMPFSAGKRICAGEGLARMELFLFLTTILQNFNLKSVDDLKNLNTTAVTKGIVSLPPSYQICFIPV
# Experimental: as §1
# CYP 2C9 = target: T4, CYP 2C9 (Homo sapiens, UniProt P11712); experiment: CYP inhibition in human liver microsomes, 2C9; type: in vitro ADME; settings: pH 7.4, @ 10 μM concn
# T4 construct: from tissue; host or cells: human liver microsomes
# T4 sequence (P11712 whole entry): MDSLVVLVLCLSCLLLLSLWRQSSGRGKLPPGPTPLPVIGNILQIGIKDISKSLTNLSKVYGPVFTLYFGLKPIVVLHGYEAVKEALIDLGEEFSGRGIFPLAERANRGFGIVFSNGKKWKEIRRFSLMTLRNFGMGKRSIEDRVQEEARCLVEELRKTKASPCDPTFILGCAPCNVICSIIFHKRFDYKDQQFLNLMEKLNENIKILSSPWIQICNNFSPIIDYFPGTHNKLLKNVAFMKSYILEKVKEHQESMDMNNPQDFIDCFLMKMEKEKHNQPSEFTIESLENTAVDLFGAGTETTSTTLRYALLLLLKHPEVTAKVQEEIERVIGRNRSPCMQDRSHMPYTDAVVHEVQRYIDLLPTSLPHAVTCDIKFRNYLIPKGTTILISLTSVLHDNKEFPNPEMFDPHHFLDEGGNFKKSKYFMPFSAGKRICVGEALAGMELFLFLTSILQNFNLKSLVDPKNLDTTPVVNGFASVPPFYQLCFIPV
# Experimental: as §1
# CYP 2C19 = target: T5, CYP 2C19 (Homo sapiens, UniProt P33261); experiment: CYP inhibition in human liver microsomes, 2C19; type: in vitro ADME; settings: pH 7.4, @ 10 μM concn
# T5 construct: from tissue; host or cells: human liver microsomes
# T5 sequence (P33261 whole entry): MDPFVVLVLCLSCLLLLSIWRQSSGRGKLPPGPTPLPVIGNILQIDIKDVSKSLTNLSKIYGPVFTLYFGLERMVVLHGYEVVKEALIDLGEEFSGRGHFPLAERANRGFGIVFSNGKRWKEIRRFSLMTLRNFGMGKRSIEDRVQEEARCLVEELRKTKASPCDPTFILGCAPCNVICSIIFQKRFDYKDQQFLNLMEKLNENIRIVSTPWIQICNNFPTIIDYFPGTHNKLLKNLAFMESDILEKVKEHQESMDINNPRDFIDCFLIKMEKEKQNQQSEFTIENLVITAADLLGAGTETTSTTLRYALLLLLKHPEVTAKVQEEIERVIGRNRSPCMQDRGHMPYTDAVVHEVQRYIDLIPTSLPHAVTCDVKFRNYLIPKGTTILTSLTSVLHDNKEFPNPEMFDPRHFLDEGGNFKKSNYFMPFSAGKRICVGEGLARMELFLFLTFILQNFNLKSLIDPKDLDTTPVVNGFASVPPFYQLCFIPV
# Experimental: as §1
# CYP 2D6 = target: T6, CYP 2D6 (Homo sapiens, UniProt P10635); experiment: CYP inhibition in human liver microsomes, 2D6; type: in vitro ADME; settings: pH 7.4, @ 10 μM concn
# T6 construct: from tissue; host or cells: human liver microsomes
# T6 sequence (P10635 whole entry): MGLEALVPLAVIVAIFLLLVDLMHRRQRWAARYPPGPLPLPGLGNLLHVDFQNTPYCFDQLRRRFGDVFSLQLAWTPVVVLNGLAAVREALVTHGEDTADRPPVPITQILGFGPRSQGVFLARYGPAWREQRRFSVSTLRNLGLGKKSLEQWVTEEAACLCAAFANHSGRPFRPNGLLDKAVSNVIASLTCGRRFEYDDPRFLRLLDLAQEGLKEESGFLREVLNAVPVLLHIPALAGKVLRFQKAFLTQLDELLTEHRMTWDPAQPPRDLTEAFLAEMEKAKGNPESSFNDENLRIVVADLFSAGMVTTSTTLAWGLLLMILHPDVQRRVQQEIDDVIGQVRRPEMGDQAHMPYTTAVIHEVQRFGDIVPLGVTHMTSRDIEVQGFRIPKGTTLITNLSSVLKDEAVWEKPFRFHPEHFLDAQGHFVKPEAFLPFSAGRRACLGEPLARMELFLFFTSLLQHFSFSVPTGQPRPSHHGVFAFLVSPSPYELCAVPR
# Experimental: as §1
# CYP 3A4 = target: T7, CYP 3A4 (Homo sapiens, UniProt P08684); experiment: CYP inhibition in human liver microsomes, 3A4; type: in vitro ADME; settings: pH 7.4, @ 10 μM concn
# T7 construct: from tissue; host or cells: human liver microsomes
# T7 sequence (P08684 whole entry): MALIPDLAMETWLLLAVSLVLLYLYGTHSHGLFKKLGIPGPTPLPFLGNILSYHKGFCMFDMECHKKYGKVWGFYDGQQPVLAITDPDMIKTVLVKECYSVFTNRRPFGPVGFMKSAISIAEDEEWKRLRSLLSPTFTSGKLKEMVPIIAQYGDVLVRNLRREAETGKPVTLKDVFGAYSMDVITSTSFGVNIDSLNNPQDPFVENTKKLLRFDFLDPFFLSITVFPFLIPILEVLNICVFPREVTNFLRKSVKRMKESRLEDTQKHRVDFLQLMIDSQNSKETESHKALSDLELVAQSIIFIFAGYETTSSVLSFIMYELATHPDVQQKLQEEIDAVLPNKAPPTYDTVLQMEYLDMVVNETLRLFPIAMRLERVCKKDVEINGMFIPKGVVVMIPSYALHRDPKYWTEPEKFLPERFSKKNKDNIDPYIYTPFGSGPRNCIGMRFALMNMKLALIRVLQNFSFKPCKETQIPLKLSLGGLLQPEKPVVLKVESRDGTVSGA
# Experimental: as §1
# T1 sequence (Q06187 whole entry): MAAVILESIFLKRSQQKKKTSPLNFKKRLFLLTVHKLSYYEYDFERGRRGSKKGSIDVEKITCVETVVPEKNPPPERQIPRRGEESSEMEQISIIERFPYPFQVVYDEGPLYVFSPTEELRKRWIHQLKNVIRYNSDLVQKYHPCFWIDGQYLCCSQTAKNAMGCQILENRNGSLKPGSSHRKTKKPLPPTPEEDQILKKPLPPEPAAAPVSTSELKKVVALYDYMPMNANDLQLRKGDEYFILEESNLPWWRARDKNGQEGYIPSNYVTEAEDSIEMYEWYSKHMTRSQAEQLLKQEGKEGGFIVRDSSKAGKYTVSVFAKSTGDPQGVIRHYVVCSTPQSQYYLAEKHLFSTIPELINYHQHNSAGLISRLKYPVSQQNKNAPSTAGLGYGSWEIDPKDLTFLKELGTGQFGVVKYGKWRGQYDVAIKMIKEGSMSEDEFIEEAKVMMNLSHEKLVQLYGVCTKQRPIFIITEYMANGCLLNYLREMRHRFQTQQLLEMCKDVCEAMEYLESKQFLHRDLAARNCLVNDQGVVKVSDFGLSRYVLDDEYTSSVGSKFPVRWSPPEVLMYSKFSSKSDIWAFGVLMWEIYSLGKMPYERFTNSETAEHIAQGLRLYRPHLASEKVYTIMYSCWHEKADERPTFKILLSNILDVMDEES
SMILES,IC50 [1] [nM],inhibition at 10 μM (CYP 1A2) [%],inhibition at 10 μM (CYP 2C8) [%],inhibition at 10 μM (CYP 2C9) [%],inhibition at 10 μM (CYP 2C19) [%],inhibition at 10 μM (CYP 2D6) [%],inhibition at 10 μM (CYP 3A4) [%]
"C=CC(=O)N1CC2CC(n3nc(-c4ccc(Oc5ccccc5)cc4)c4c(N)ncnc43)CC2C1 (centres unmarked) [Compound 1, 1-(5-(4-amino-3-(4-phenoxyphenyl)-1H-pyrazolo[3,4-d]pyrimidin-1-yl)hexahydrocyclopenta[c]pyrrol-2(1H)-yl)prop-2-en-1-one]",1.3,< 50,< 50,< 50,< 50,< 50,< 50
"C=CC(=O)N1CC2CC(n3nc(-c4ccc5ncsc5c4)c4c(N)ncnc43)CC2C1 (centres unmarked) [Compound 2, 1-(5-(4-amino-3-(benzo[d]thiazol-6-yl)-1H-pyrazolo[3,4-d]pyrimidin-1-yl)hexahydrocyclopenta[c]pyrrol-2(1H)-yl)prop-2-en-1-one]",1.1,< 50,< 50,< 50,< 50,< 50,< 50
"C=CC(=O)N1CC2CN(c3ccc(Cn4nc(-c5ccc(Oc6ccccc6)cc5)c5c(N)ncnc54)cn3)CC2C1 (centres unmarked) [Compound 3, 1-(5-(5-((4-amino-3-(4-phenoxyphenyl)-1H-pyrazolo[3,4-d]pyrimidin-1-yl)methyl)pyridin-2-yl)hexahydropyrrolo[3,4-c]pyrrol-2(1H)-yl)prop-2-en-1-one]",8,< 50,< 50,> 50,< 50,< 50,< 50
"C=CC(=O)N1CC2CN(CCn3nc(-c4ccc(Oc5ccccc5)cc4)c4c(N)ncnc43)CC2C1 (centres unmarked) [Compound 4, 1-(5-(2-(4-amino-3-(4-phenoxyphenyl)-1H-pyrazolo[3,4-d]pyrimidin-1-yl)ethyl)hexahydropyrrolo[3,4-c]pyrrol-2(1H)-yl)prop-2-en-1-one]",2,< 50,< 50,< 50,< 50,< 50,< 50
"C=CC(=O)N1CC2CC(n3nc(-c4ccc5nc(C)sc5c4)c4c(N)ncnc43)CC2C1 (centres unmarked) [Compound 5, 1-(5-(4-amino-3-(2-methylbenzo[d]thiazol-6-yl)-1H-pyrazolo[3,4-d]pyrimidin-1-yl)hexahydrocyclopenta[c]pyrrol-2(1H)-yl)prop-2-en-1-one]",8,< 50,< 50,< 50,< 50,< 50,> 50
"C=CC(=O)N1CC2CC(n3nc(-c4ccc5sccc5c4)c4c(N)ncnc43)CC2C1 (centres unmarked) [Compound 6, 1-(5-(4-amino-3-(benzo[b]thiophen-5-yl)-1H-pyrazolo[3,4-d]pyrimidin-1-yl)hexahydrocyclopenta[c]pyrrol-2(1H)-yl)prop-2-en-1-one]",1.7,< 50,< 50,< 50,< 50,< 50,< 50
"C=CC(=O)N1CC2CC(n3nc(-c4ccc5c(c4)CCS5)c4c(N)ncnc43)CC2C1 (centres unmarked) [Compound 7, 1-(5-(4-amino-3-(2,3-dihydrobenzo[b]thiophen-5-yl)-1H-pyrazolo [3,4-d]pyrimidin-1-yl)hexahydrocyclopenta[c]pyrrol-2(1H)-yl)prop-2-en-1-one]",6,< 50,< 50,> 50,< 50,< 50,> 50
"C=CC(=O)N1CC2CC(n3nc(-c4ccc5c(c4)oc4ccccc45)c4c(N)ncnc43)CC2C1 (centres unmarked) [Compound 8, 1-(5-(4-amino-3-(dibenzo[b,d]furan-3-yl)-1H-pyrazolo[3,4-d]pyrimidin-1-yl)hexahydrocyclopenta[c]pyrrol-2(1H)-yl)prop-2-en-1-one]",4,< 50,< 50,< 50,> 50,< 50,< 50
"C=CC(=O)N1CC2CC(n3nc(-c4ccc5nc(NC(C)=O)sc5c4)c4c(N)ncnc43)CC2C1 (centres unmarked) [Compound 9, N-(6-(1-(2-acryloyloctahydrocyclopenta[c]pyrrol-5-yl)-4-amino-1H-pyrazolo [3,4-d]pyrimidin-3-yl)benzo[d]thiazol-2-yl)acetamide]",28,< 50,> 50,> 50,< 50,< 50,> 50
"C=CC(=O)N1CC2CC(n3nc(-c4ccc5nc(OC)sc5c4)c4c(N)ncnc43)CC2C1 (centres unmarked) [Compound 10, 1-(5-(4-amino-3-(2-methoxybenzo[d]thiazol-6-yl)-1H-pyrazolo[3,4-d]pyrimidin-1-yl)hexahydrocyclopenta[c]pyrrol-2(1H)-yl)prop-2-en-1-one]",25,< 50,> 50,< 50,< 50,> 50,> 50
"CN(C)C/C=C/C(=O)N1CC2CC(n3nc(-c4ccc(Oc5ccccc5)cc4)c4c(N)ncnc43)CC2C1 (centres unmarked) [Compound 48, (E)-1-(5-(4-amino-3-(4-phenoxyphenyl)-1H-pyrazolo[3,4-d]pyrimidin-1-yl)hexahydrocyclopenta[c]pyrrol-2(1H)-yl)-4-(dimethylamino)but-2-en-1-one]",50,,,,,,
